This is an account of results in patent EP4577243B1, “STABLE LIPID OR LIPIDOID NANOPARTICLE SUSPENSIONS” (Ethris GmbH, priority 2022, dated 2024).

The nature of this data set: pKa of ionizable lipids (Tables 1 to 3). In kind it is physicochemical. Conditions: Table 2.

A word on the pKa: it is the pH at which an ionisable group is half protonated. `CCCCCCCC(=O)N(CCCN(C)C)C(CCCCCCCCC(=O)OC(CCCCCC)CCCCCC)CCCCCCCCC(=O)OC(CCCCCC)CCCCCC` [II-10] yielded a pKa of 6.16.
